# From US20070167631A1, “Novel herbicides” (priority 2003, published 2007)
# System: Amaranthus
# Experiment: Post-emergence herbicidal action (Example B2)
# Assay type: in vivo
# Details: 250 g/ha, after about 18 days, rating scale 10=total damage, 0=no action
# Source text: (§1) Monocotyledonous and dicotyledonous test plants are cultivated in a greenhouse in standard soil in plastic pots and, at the 4- to 6-leaf stage, are sprayed with an aqueous suspension of the test compounds of formula I prepared from a 25% wettable powder (Example F3, b) according to WO 97/34485) or with an emulsion of the test compounds of formula I prepared from a 25% emulsifiable concentrate (Example F1, c) according to WO 97/34485), corresponding to concentrations of 125 and 250 g of active ingredient per hectare (500 litres of water per ha). The test plants are then grown on in the greenhouse under optimum conditions. After a test duration of about 18 days, the test is evaluated in accordance with a scale of eleven ratings (10=total damage, 0=no action). Ratings of from 10 to 7 (especially from 10 to 8) indicate very good to good herbicidal action.
row,Structure (SMILES),Post-emergence action: Amaranthus
1,COCCOc1nc(C(=O)C2=C(O)CCCC2=O)ccc1C(F)(F)F [Compound 1.003],9
2,O=C1CCCC(O)=C1C(=O)c1ccc(C(F)(F)F)c(OC2CCOC2)n1 (stereo not shown) [Compound 1.021],9
3,O=C1CCCC(O)=C1C(=O)c1ccc(C(F)(F)F)c(-n2ccc(C(F)(F)F)n2)n1 [Compound 1.081],10
4,CCC(=O)N(C)c1nc(C(=O)C2=C(O)CCCC2=O)ccc1C(F)(F)F [Compound 1.090],8
5,CC1=NOC(c2nc(C(=O)C3=C(O)CCCC3=O)ccc2C(F)(F)F)C1 (stereo not shown) [Compound 1.203],8
6,COCCOc1nc(C(=O)C2=C(O)C(C)(C)C(=O)C(C)(C)C2=O)ccc1C(F)(F)F [Compound 2.003],8
7,CC1(C)C(=O)C(C(=O)c2ccc(C(F)(F)F)c(-n3ccc(C(F)(F)F)n3)n2)=C(O)C(C)(C)C1=O [Compound 2.080],9
8,COc1nc(C(=O)C2=C(O)C(C)(C)C(=O)C(C)(C)C2=O)ccc1C(F)(F)F [Compound 2.094],3
9,CCOc1nc(C(=O)C2=C(O)C(C)(C)C(=O)C(C)(C)C2=O)ccc1C(F)(F)F [Compound 2.095],9
10,C=C(OCC)c1nc(C(=O)C2=C(O)C(C)(C)C(=O)C(C)(C)C2=O)ccc1C(F)(F)F [Compound 2.188],5
11,CC1=NOC(c2nc(C(=O)C3=C(O)C(C)(C)C(=O)C(C)(C)C3=O)ccc2C(F)(F)F)C1 (stereo not shown) [Compound 2.201],9

# System: Chenopodium
# Experiment: Post-emergence herbicidal action (Example B2)
# Assay type: in vivo
# Details: 250 g/ha, after about 18 days, rating scale 10=total damage, 0=no action
# Source text: as §1
row,Structure (SMILES),Post-emergence action: Chenopodium
1,COCCOc1nc(C(=O)C2=C(O)CCCC2=O)ccc1C(F)(F)F [Compound 1.003],10
2,O=C1CCCC(O)=C1C(=O)c1ccc(C(F)(F)F)c(OC2CCOC2)n1 (stereo not shown) [Compound 1.021],8
3,O=C1CCCC(O)=C1C(=O)c1ccc(C(F)(F)F)c(-n2ccc(C(F)(F)F)n2)n1 [Compound 1.081],9
4,CCC(=O)N(C)c1nc(C(=O)C2=C(O)CCCC2=O)ccc1C(F)(F)F [Compound 1.090],9
5,CC1=NOC(c2nc(C(=O)C3=C(O)CCCC3=O)ccc2C(F)(F)F)C1 (stereo not shown) [Compound 1.203],9
6,COCCOc1nc(C(=O)C2=C(O)C(C)(C)C(=O)C(C)(C)C2=O)ccc1C(F)(F)F [Compound 2.003],8
7,CC1(C)C(=O)C(C(=O)c2ccc(C(F)(F)F)c(-n3ccc(C(F)(F)F)n3)n2)=C(O)C(C)(C)C1=O [Compound 2.080],6
8,COc1nc(C(=O)C2=C(O)C(C)(C)C(=O)C(C)(C)C2=O)ccc1C(F)(F)F [Compound 2.094],9
9,CCOc1nc(C(=O)C2=C(O)C(C)(C)C(=O)C(C)(C)C2=O)ccc1C(F)(F)F [Compound 2.095],8
10,C=C(OCC)c1nc(C(=O)C2=C(O)C(C)(C)C(=O)C(C)(C)C2=O)ccc1C(F)(F)F [Compound 2.188],6
11,CC1=NOC(c2nc(C(=O)C3=C(O)C(C)(C)C(=O)C(C)(C)C3=O)ccc2C(F)(F)F)C1 (stereo not shown) [Compound 2.201],8

# System: Echinochloa
# Experiment: Post-emergence herbicidal action (Example B2)
# Assay type: in vivo
# Details: 250 g/ha, after about 18 days, rating scale 10=total damage, 0=no action
# Source text: as §1
row,Structure (SMILES),Post-emergence action: Echinochloa
1,COCCOc1nc(C(=O)C2=C(O)CCCC2=O)ccc1C(F)(F)F [Compound 1.003],8
2,O=C1CCCC(O)=C1C(=O)c1ccc(C(F)(F)F)c(OC2CCOC2)n1 (stereo not shown) [Compound 1.021],6
3,O=C1CCCC(O)=C1C(=O)c1ccc(C(F)(F)F)c(-n2ccc(C(F)(F)F)n2)n1 [Compound 1.081],9
4,CCC(=O)N(C)c1nc(C(=O)C2=C(O)CCCC2=O)ccc1C(F)(F)F [Compound 1.090],7
5,CC1=NOC(c2nc(C(=O)C3=C(O)CCCC3=O)ccc2C(F)(F)F)C1 (stereo not shown) [Compound 1.203],8
6,COCCOc1nc(C(=O)C2=C(O)C(C)(C)C(=O)C(C)(C)C2=O)ccc1C(F)(F)F [Compound 2.003],9
7,CC1(C)C(=O)C(C(=O)c2ccc(C(F)(F)F)c(-n3ccc(C(F)(F)F)n3)n2)=C(O)C(C)(C)C1=O [Compound 2.080],9
8,COc1nc(C(=O)C2=C(O)C(C)(C)C(=O)C(C)(C)C2=O)ccc1C(F)(F)F [Compound 2.094],8
9,CCOc1nc(C(=O)C2=C(O)C(C)(C)C(=O)C(C)(C)C2=O)ccc1C(F)(F)F [Compound 2.095],9
10,C=C(OCC)c1nc(C(=O)C2=C(O)C(C)(C)C(=O)C(C)(C)C2=O)ccc1C(F)(F)F [Compound 2.188],7
11,CC1=NOC(c2nc(C(=O)C3=C(O)C(C)(C)C(=O)C(C)(C)C3=O)ccc2C(F)(F)F)C1 (stereo not shown) [Compound 2.201],8

# System: Euphorbia
# Experiment: Post-emergence herbicidal action (Example B2)
# Assay type: in vivo
# Details: 250 g/ha, after about 18 days, rating scale 10=total damage, 0=no action
# Source text: as §1
row,Structure (SMILES),Post-emergence action: Euphorbia
1,COCCOc1nc(C(=O)C2=C(O)CCCC2=O)ccc1C(F)(F)F [Compound 1.003],6
2,O=C1CCCC(O)=C1C(=O)c1ccc(C(F)(F)F)c(OC2CCOC2)n1 (stereo not shown) [Compound 1.021],7
3,O=C1CCCC(O)=C1C(=O)c1ccc(C(F)(F)F)c(-n2ccc(C(F)(F)F)n2)n1 [Compound 1.081],9
4,CC1=NOC(c2nc(C(=O)C3=C(O)CCCC3=O)ccc2C(F)(F)F)C1 (stereo not shown) [Compound 1.203],7
5,COCCOc1nc(C(=O)C2=C(O)C(C)(C)C(=O)C(C)(C)C2=O)ccc1C(F)(F)F [Compound 2.003],9
6,CC1(C)C(=O)C(C(=O)c2ccc(C(F)(F)F)c(-n3ccc(C(F)(F)F)n3)n2)=C(O)C(C)(C)C1=O [Compound 2.080],9
7,COc1nc(C(=O)C2=C(O)C(C)(C)C(=O)C(C)(C)C2=O)ccc1C(F)(F)F [Compound 2.094],8
8,CCOc1nc(C(=O)C2=C(O)C(C)(C)C(=O)C(C)(C)C2=O)ccc1C(F)(F)F [Compound 2.095],9
9,C=C(OCC)c1nc(C(=O)C2=C(O)C(C)(C)C(=O)C(C)(C)C2=O)ccc1C(F)(F)F [Compound 2.188],7
10,CC1=NOC(c2nc(C(=O)C3=C(O)C(C)(C)C(=O)C(C)(C)C3=O)ccc2C(F)(F)F)C1 (stereo not shown) [Compound 2.201],6

# System: Panicum
# Experiment: Post-emergence herbicidal action (Example B2)
# Assay type: in vivo
# Details: 250 g/ha, after about 18 days, rating scale 10=total damage, 0=no action
# Source text: as §1
row,Structure (SMILES),Post-emergence action: Panicum
1,COCCOc1nc(C(=O)C2=C(O)CCCC2=O)ccc1C(F)(F)F [Compound 1.003],8
2,O=C1CCCC(O)=C1C(=O)c1ccc(C(F)(F)F)c(OC2CCOC2)n1 (stereo not shown) [Compound 1.021],6
3,O=C1CCCC(O)=C1C(=O)c1ccc(C(F)(F)F)c(-n2ccc(C(F)(F)F)n2)n1 [Compound 1.081],10
4,CCC(=O)N(C)c1nc(C(=O)C2=C(O)CCCC2=O)ccc1C(F)(F)F [Compound 1.090],8
5,CC1=NOC(c2nc(C(=O)C3=C(O)CCCC3=O)ccc2C(F)(F)F)C1 (stereo not shown) [Compound 1.203],9
6,COCCOc1nc(C(=O)C2=C(O)C(C)(C)C(=O)C(C)(C)C2=O)ccc1C(F)(F)F [Compound 2.003],9
7,CC1(C)C(=O)C(C(=O)c2ccc(C(F)(F)F)c(-n3ccc(C(F)(F)F)n3)n2)=C(O)C(C)(C)C1=O [Compound 2.080],9
8,COc1nc(C(=O)C2=C(O)C(C)(C)C(=O)C(C)(C)C2=O)ccc1C(F)(F)F [Compound 2.094],8
9,CCOc1nc(C(=O)C2=C(O)C(C)(C)C(=O)C(C)(C)C2=O)ccc1C(F)(F)F [Compound 2.095],9
10,C=C(OCC)c1nc(C(=O)C2=C(O)C(C)(C)C(=O)C(C)(C)C2=O)ccc1C(F)(F)F [Compound 2.188],9
11,CC1=NOC(c2nc(C(=O)C3=C(O)C(C)(C)C(=O)C(C)(C)C3=O)ccc2C(F)(F)F)C1 (stereo not shown) [Compound 2.201],9

# System: Stellaria
# Experiment: Post-emergence herbicidal action (Example B2)
# Assay type: in vivo
# Details: 250 g/ha, after about 18 days, rating scale 10=total damage, 0=no action
# Source text: as §1
row,Structure (SMILES),Post-emergence action: Stellaria
1,COCCOc1nc(C(=O)C2=C(O)CCCC2=O)ccc1C(F)(F)F [Compound 1.003],10
2,O=C1CCCC(O)=C1C(=O)c1ccc(C(F)(F)F)c(OC2CCOC2)n1 (stereo not shown) [Compound 1.021],7
3,O=C1CCCC(O)=C1C(=O)c1ccc(C(F)(F)F)c(-n2ccc(C(F)(F)F)n2)n1 [Compound 1.081],6
4,CCC(=O)N(C)c1nc(C(=O)C2=C(O)CCCC2=O)ccc1C(F)(F)F [Compound 1.090],6
5,CC1=NOC(c2nc(C(=O)C3=C(O)CCCC3=O)ccc2C(F)(F)F)C1 (stereo not shown) [Compound 1.203],7
6,COCCOc1nc(C(=O)C2=C(O)C(C)(C)C(=O)C(C)(C)C2=O)ccc1C(F)(F)F [Compound 2.003],9
7,CC1(C)C(=O)C(C(=O)c2ccc(C(F)(F)F)c(-n3ccc(C(F)(F)F)n3)n2)=C(O)C(C)(C)C1=O [Compound 2.080],7
8,COc1nc(C(=O)C2=C(O)C(C)(C)C(=O)C(C)(C)C2=O)ccc1C(F)(F)F [Compound 2.094],9
9,CCOc1nc(C(=O)C2=C(O)C(C)(C)C(=O)C(C)(C)C2=O)ccc1C(F)(F)F [Compound 2.095],5
10,C=C(OCC)c1nc(C(=O)C2=C(O)C(C)(C)C(=O)C(C)(C)C2=O)ccc1C(F)(F)F [Compound 2.188],10
11,CC1=NOC(c2nc(C(=O)C3=C(O)C(C)(C)C(=O)C(C)(C)C3=O)ccc2C(F)(F)F)C1 (stereo not shown) [Compound 2.201],6

# System: Xanthium
# Experiment: Post-emergence herbicidal action (Example B2)
# Assay type: in vivo
# Details: 250 g/ha, after about 18 days, rating scale 10=total damage, 0=no action
# Source text: as §1
row,Structure (SMILES),Post-emergence action: Xanthium
1,COCCOc1nc(C(=O)C2=C(O)CCCC2=O)ccc1C(F)(F)F [Compound 1.003],9
2,O=C1CCCC(O)=C1C(=O)c1ccc(C(F)(F)F)c(OC2CCOC2)n1 (stereo not shown) [Compound 1.021],9
3,O=C1CCCC(O)=C1C(=O)c1ccc(C(F)(F)F)c(-n2ccc(C(F)(F)F)n2)n1 [Compound 1.081],9
4,CCC(=O)N(C)c1nc(C(=O)C2=C(O)CCCC2=O)ccc1C(F)(F)F [Compound 1.090],8
5,CC1=NOC(c2nc(C(=O)C3=C(O)CCCC3=O)ccc2C(F)(F)F)C1 (stereo not shown) [Compound 1.203],8
6,COCCOc1nc(C(=O)C2=C(O)C(C)(C)C(=O)C(C)(C)C2=O)ccc1C(F)(F)F [Compound 2.003],8
7,CC1(C)C(=O)C(C(=O)c2ccc(C(F)(F)F)c(-n3ccc(C(F)(F)F)n3)n2)=C(O)C(C)(C)C1=O [Compound 2.080],9
8,COc1nc(C(=O)C2=C(O)C(C)(C)C(=O)C(C)(C)C2=O)ccc1C(F)(F)F [Compound 2.094],7
9,CCOc1nc(C(=O)C2=C(O)C(C)(C)C(=O)C(C)(C)C2=O)ccc1C(F)(F)F [Compound 2.095],9
10,C=C(OCC)c1nc(C(=O)C2=C(O)C(C)(C)C(=O)C(C)(C)C2=O)ccc1C(F)(F)F [Compound 2.188],8
11,CC1=NOC(c2nc(C(=O)C3=C(O)C(C)(C)C(=O)C(C)(C)C3=O)ccc2C(F)(F)F)C1 (stereo not shown) [Compound 2.201],8
